{"source": "paper PMC9979702", "about": "(Bioorganic & Medicinal Chemistry Letters, 2023)", "key": {"SARS-CoV-2": {"test_system": "SARS-CoV-2", "type": "cell-based", "settings": "Vero cells"}, "hERG": {"biological_target": "hERG (Homo sapiens, UniProt Q12809)", "sequence (Q12809 whole entry)": "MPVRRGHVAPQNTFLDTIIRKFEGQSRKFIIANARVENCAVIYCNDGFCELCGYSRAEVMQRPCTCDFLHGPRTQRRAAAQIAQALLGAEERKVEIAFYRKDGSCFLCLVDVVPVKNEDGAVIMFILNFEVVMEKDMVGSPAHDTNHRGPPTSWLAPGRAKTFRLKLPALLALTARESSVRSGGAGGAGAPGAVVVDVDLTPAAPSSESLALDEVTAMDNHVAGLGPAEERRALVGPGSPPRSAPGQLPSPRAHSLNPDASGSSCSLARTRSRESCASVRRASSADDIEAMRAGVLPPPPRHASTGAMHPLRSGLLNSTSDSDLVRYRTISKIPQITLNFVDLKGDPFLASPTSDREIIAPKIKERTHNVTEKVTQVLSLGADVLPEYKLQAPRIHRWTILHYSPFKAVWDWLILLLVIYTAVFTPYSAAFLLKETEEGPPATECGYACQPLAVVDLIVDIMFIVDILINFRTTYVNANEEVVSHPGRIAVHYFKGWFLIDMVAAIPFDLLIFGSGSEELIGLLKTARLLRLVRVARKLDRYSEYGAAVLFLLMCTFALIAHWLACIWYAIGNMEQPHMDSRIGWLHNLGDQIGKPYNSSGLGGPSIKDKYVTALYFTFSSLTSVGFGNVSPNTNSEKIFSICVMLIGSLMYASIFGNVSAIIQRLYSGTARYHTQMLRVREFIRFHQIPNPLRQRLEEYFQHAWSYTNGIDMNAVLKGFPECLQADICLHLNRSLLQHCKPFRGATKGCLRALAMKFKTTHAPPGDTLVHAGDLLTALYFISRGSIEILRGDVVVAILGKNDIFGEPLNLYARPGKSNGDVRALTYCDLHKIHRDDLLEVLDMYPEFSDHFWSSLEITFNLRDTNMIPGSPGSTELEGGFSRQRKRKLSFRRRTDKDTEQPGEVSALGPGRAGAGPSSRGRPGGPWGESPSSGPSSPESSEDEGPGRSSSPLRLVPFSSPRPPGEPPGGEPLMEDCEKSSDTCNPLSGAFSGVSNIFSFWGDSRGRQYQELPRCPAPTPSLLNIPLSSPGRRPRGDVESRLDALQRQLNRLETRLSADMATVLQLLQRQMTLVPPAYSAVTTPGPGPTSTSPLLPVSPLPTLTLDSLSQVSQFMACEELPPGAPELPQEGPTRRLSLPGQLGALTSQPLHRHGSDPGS", "settings": "even at 100 µM"}}, "data": [{"molecule": "O=C(O)c1c(Nc2cccc(F)c2)[nH]c2cc(F)c(F)cc2c1=O", "note": "[Compound 9f, 6,7-difluoro-2-((3-fluorophenyl)amino)-4-oxo-1,4-dihydroquinoline-3-carboxylic acid]", "values": [{"measurement": "antiviral activity against SARS-CoV-2 (in words)", "setting": "SARS-CoV-2", "result": "had antiviral activity"}]}, {"molecule": "O=c1cc(Nc2cccc(F)c2)[nH]c2cc(F)c(F)cc12", "note": "[Compound 10, 6,7-difluoro-2-((3-fluorophenyl)amino)quinolin-4(1H)-one]", "values": [{"measurement": "antiviral activity against SARS-CoV-2 (in words)", "setting": "SARS-CoV-2", "result": "no activity"}]}, {"molecule": "O=C(O)c1c(Nc2cccc(F)c2)[nH]c2cc(Cl)ccc2c1=O", "note": "[Compound 9b, 7-chloro-2-((3-fluorophenyl)amino)-4-oxo-1,4-dihydroquinoline-3-carboxylic acid]", "values": [{"measurement": "hERG binding (in words)", "setting": "hERG", "result": "no hERG binding was detected"}]}, {"molecule": "CN(C)CCCNc1[nH]c2cc(Cl)ccc2c(=O)c1C(=O)O", "note": "[Compound 7a, 7-chloro-2-((3-(dimethylamino)propyl)amino)-4-oxo-1,4-dihydroquinoline-3-carboxylic acid]", "values": [{"measurement": "antiviral activity against SARS-CoV-2 (in words)", "setting": "SARS-CoV-2", "result": "no activity"}]}]}
